Results taken from PubChem BioAssay (NCI).
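Five compound concentrations were applied to cells in 96-well plates for 48 hours; endpoints were derived by simple linear interpolation of the resulting dose-response curve. TGI: total growth inhibition.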

Legend:
Assay in all cases: DTP human tumour cell line panel, 48 h
[1] = tested on: MDA-N
[2] = tested on: OVCAR-5 ovarian
[3] = tested on: KM12 colon
[4] = tested on: RPMI-8226 leukemia
[5] = tested on: TK-10 renal
[6] = tested on: SK-OV-3 ovarian
[7] = tested on: U251 CNS
[8] = tested on: NCI-H522 lung
[9] = tested on: SNB-19 CNS
[10] = tested on: LOX IMVI melanoma
[11] = tested on: RXF 393 renal
[12] = tested on: UO-31 renal
[13] = tested on: UACC-257 melanoma
[14] = tested on: A498 renal
[15] = tested on: A549 NSCLC
[16] = tested on: OVCAR-4 ovarian
[17] = tested on: SK-MEL-2 melanoma
[18] = tested on: HCT-15 colon
[19] = tested on: SNB-75 CNS
[20] = tested on: HS 578T breast
[21] = tested on: K-562 leukemia
[22] = tested on: MDA-MB-231 breast
[23] = tested on: 786-0 renal
[24] = tested on: IGROV1 ovarian
[25] = tested on: MCF7 breast
[26] = tested on: HOP-92 NSCLC
[27] = tested on: HOP-62 NSCLC
[28] = tested on: ACHN renal
[29] = tested on: T-47D breast
[30] = tested on: SR leukemia
[31] = tested on: NCI/ADR-RES ovarian
[32] = tested on: NCI-H460 lung
[33] = tested on: M14 melanoma
[34] = tested on: SN12C renal
[35] = tested on: UACC-62 melanoma
[36] = tested on: HT29 colon
[37] = tested on: DU-145 prostate
[38] = tested on: NCI-H226 lung
[39] = tested on: SK-MEL-28 melanoma
[40] = tested on: COLO 205 colon
[41] = tested on: CCRF-CEM leukemia
[42] = tested on: HCT-116 colon
[43] = tested on: SW-620 colon
[44] = tested on: HL-60(TB) leukemia
[45] = tested on: MOLT-4 leukemia
[46] = tested on: MALME-3M melanoma
[47] = tested on: SF-295 CNS
[48] = tested on: NCI-H23 lung
[49] = tested on: CAKI-1 renal
[50] = tested on: OVCAR-8 ovarian
[51] = tested on: MDA-MB-435
[52] = tested on: PC-3 prostate
[53] = tested on: OVCAR-3 ovarian
[54] = tested on: SF-268 CNS
[55] = tested on: SK-MEL-5 melanoma
[56] = tested on: SF-539 CNS

Question: How did the TGI [1] turn out when `COc1cc(O)c2c(c1)OCC1(Cc3cc(OC)c(OC)cc31)C2=O` (stereo unspecified) was run?
Answer: Its TGI is > 100 µM.

Question: What about the TGI [2] of the same molecule?
Answer: The TGI was > 100 µM.

Question: And the TGI [3]?
Answer: Its TGI is > 100 µM.

Question: And the TGI [4]?
Answer: Its TGI is > 100 µM.

Question: And the TGI [5]?
Answer: Its TGI is > 100 µM.

Question: What about the TGI [6] of the same molecule?
Answer: The TGI was > 100 µM.

Question: And the TGI [7]?
Answer: The TGI was > 100 µM.

Question: What about the TGI [8] of the same molecule?
Answer: The TGI was > 100 µM.

Question: What about the TGI [9] of the same molecule?
Answer: Its TGI is > 100 µM.

Question: And the TGI [10]?
Answer: Its TGI is > 100 µM.

Question: And the TGI [11]?
Answer: Its TGI is > 100 µM.

Question: What about the TGI [12] of the same molecule?
Answer: Its TGI is > 100 µM.

Question: And the TGI [13]?
Answer: Its TGI is > 100 µM.

Question: And the TGI [14]?
Answer: The TGI was > 100 µM.

Question: What about the TGI [15] of the same molecule?
Answer: The TGI was 66.8 µM.

Question: What about the TGI [16] of the same molecule?
Answer: Its TGI is > 100 µM.

Question: And the TGI [17]?
Answer: The TGI was > 100 µM.

Question: And the TGI [18]?
Answer: Its TGI is > 100 µM.

Question: What about the TGI [19] of the same molecule?
Answer: The TGI was > 100 µM.

Question: What about the TGI [20] of the same molecule?
Answer: The TGI was > 100 µM.

Question: And the TGI [21]?
Answer: The TGI was > 100 µM.

Question: And the TGI [22]?
Answer: Its TGI is > 100 µM.

Question: What about the TGI [23] of the same molecule?
Answer: Its TGI is > 100 µM.

Question: And the TGI [24]?
Answer: The TGI was > 100 µM.

Question: And the TGI [25]?
Answer: The TGI was > 100 µM.

Question: What about the TGI [26] of the same molecule?
Answer: Its TGI is > 100 µM.

Question: And the TGI [27]?
Answer: Its TGI is > 100 µM.

Question: And the TGI [28]?
Answer: The TGI was > 100 µM.

Question: What about the TGI [29] of the same molecule?
Answer: Its TGI is 57.2 µM.

Question: What about the TGI [30] of the same molecule?
Answer: The TGI was > 100 µM.

Question: And the TGI [31]?
Answer: The TGI was > 100 µM.

Question: And the TGI [32]?
Answer: Its TGI is > 100 µM.

Question: What about the TGI [33] of the same molecule?
Answer: The TGI was > 100 µM.

Question: What about the TGI [34] of the same molecule?
Answer: Its TGI is > 100 µM.

Question: What about the TGI [35] of the same molecule?
Answer: The TGI was > 100 µM.

Question: What about the TGI [36] of the same molecule?
Answer: Its TGI is > 100 µM.

Question: What about the TGI [37] of the same molecule?
Answer: The TGI was > 100 µM.

Question: What about the TGI [38] of the same molecule?
Answer: Its TGI is > 100 µM.

Question: And the TGI [39]?
Answer: Its TGI is > 100 µM.

Question: What about the TGI [40] of the same molecule?
Answer: The TGI was > 100 µM.

Question: And the TGI [41]?
Answer: The TGI was > 100 µM.

Question: What about the TGI [42] of the same molecule?
Answer: Its TGI is > 100 µM.

Question: And the TGI [43]?
Answer: The TGI was > 100 µM.

Question: And the TGI [44]?
Answer: The TGI was > 100 µM.

Question: And the TGI [45]?
Answer: Its TGI is > 100 µM.

Question: What about the TGI [46] of the same molecule?
Answer: The TGI was > 100 µM.

Question: And the TGI [47]?
Answer: The TGI was > 100 µM.

Question: What about the TGI [48] of the same molecule?
Answer: Its TGI is > 100 µM.

Question: What about the TGI [49] of the same molecule?
Answer: Its TGI is > 100 µM.

Question: And the TGI [50]?
Answer: The TGI was > 100 µM.

Question: And the TGI [51]?
Answer: Its TGI is > 100 µM.

Question: What about the TGI [52] of the same molecule?
Answer: Its TGI is > 100 µM.

Question: What about the TGI [53] of the same molecule?
Answer: The TGI was > 100 µM.

Question: What about the TGI [54] of the same molecule?
Answer: The TGI was > 100 µM.

Question: And the TGI [55]?
Answer: Its TGI is 26.7 µM.

Question: What about the TGI [56] of the same molecule?
Answer: Its TGI is > 100 µM.
